Experimental data taken from patent US20260174671A1, “COMPOSITION FOR ALLEVIATING OR PREVENTING SYMPTOMS OF ALLERGIC RHINITIS OR ALLERGIC CONJUNCTIVITIS” (Nissui Corporation, priority 2022, published 2026).

How the values were obtained:
[1] = test system: atopic dermatitis model mice; settings: PTL 4, cited from earlier work
[2] = test system: splenocytes from the model mice; settings: PTL 4; cited from earlier work
[3] = test system: dermatitis model animals; settings: intake of DGLA; PTL 2; cited from earlier work
[4] = test system: adult males and females who had experienced nasal and/or eye discomfort due to pollen; assay: Japanese Allergic Rhinitis Standard Quality of Life Questionnaire (JRQLQ), placebo-controlled intake test during the pollen season; type: in vivo, human
Source text: The JRQLQ is a questionnaire created by Okuda et al. to assess the impact of allergic rhinitis on quality of life (QOL) (Minoru Okuda et al.: Japanese Rhino-conjunctivitis Quality-of-Life Questionnaire (2002 edition), Committee of the Japanese Rhino-conjunctivitis Quality-of-Life Questionnaire, Allergy 2003; 52:21-56). […] In the JRQLQ, the subject himself/herself selects the one that best describes the severity of the worst nasal and eye symptoms the subject has experienced in the past 1-2 weeks on the items listed in the table below.
Also, as shown in Examples to be described later, the composition of the present invention can reduce the scores of nasal and eye symptoms in the JRQLQ, in particular, or suppress the increase of the score, compared to the placebo group. In the present invention, the phrase the “score of nasal and eye symptoms in the JRQLQ” means the sum of the scores of runny nose, sneezing, blocked nose, itchy nose, itchy eyes, and watery eyes in the JRQLQ. In a preferred embodiment of the present invention, the composition of the present invention can be used for reducing the scores of nasal and eye symptoms in the JRQLQ, or suppressing the increase of the score, compared to the placebo group. […]
(§1) The mean±SD of the change in score from the start of the testing was calculated for each group at each time point, and statistical analysis was conducted. […]

[5] = test system: adult males and females who had experienced nasal and/or eye discomfort due to pollen; assay: Severity classification of allergic rhinitis symptoms, placebo-controlled intake test during the pollen season; type: in vivo, human
Source text: The severity classification of allergic rhinitis symptoms refers to a method of classifying the severity based on Practical Guideline for the Management of Allergic Rhinitis in Japan 2020 (Committee of the Practical Guideline for the Management of Allergic Rhinitis). Specifically, each evening, the subject himself/herself selects the one that best describes the severity of the day on the subjective symptoms on each item listed in the table below.
The subjects were adult males and females who had experienced nasal and/or eye discomfort due to pollen for the past 2 years.
The remaining 36 subjects were randomized and divided into a DGLA administration group (intervention group; hereinafter referred to as DGLA group) with 18 subjects and a placebo administration group (control group; hereinafter referred to as placebo group) with 18 subjects. 3 subjects in the placebo group became untraceable during the testing. Therefore, the analysis was performed on 18 subjects in the DGLA group and 15 subjects in the placebo group.
The DGLA group: DGLA-containing oil (DGLA of 31.4% by weight) was taken at 1,000 mg/day for 15 weeks. The DGLA of 314 mg/day is to be taken in terms of free fatty acid. The DGLA-containing oil was obtained by the method described in Japanese Patent No. 3354581. Specifically, to 200 g of dry cells of a filamentous fungus (Mortierella alpina), 500 mL of hexane was added, the mixture was stirred, and the filtration was repeated three times to extract oil, and then the hexane layer was evaporated to obtain DGLA-containing oil. The subjects took 4 capsules filled with this oil per day.
The intake duration of the diet for testing was 15 weeks from January 8th to Apr. 23, 2022. […]
as §1

SMILES: CCCCC/C=C\C/C=C\C/C=C\CCCCC(=O)O [GLA, γ-linolenic acid]
- IgE production ([1]; orally administered for two months, atopic dermatitis-affected mice with hyper IgE-emia): suppression of IgE production was not observed
- IgE production in vitro [2]: suppressed IgE production

SMILES: CCCCC/C=C\C/C=C\C/C=C\CCCCC(=O)OCC [γ-linolenic acid (GLA) ethyl ester]
- hyper IgE production ([1]; oral administration, atopic dermatitis model mice): suppressed hyper IgE production

SMILES: CCCCCC=CCC=CCC=CCCCCCCC(=O)O [DGLA, 8,11,14-eicosatrienoic acid]
- dermatitis [3]: suppresses dermatitis
- JRQLQ nasal and eye symptom score (sum of runny nose, sneezing, blocked nose, itchy nose, itchy eyes, watery eyes), change from week 0 ([4]; DGLA group (n=18) vs placebo group (n=15), DGLA-containing oil 1,000 mg/day (DGLA 314 mg/day) oral, 15 weeks, p<0.1, FIG. 3): tended to be reduced
- stratification analysis of the DGLA group, JRQLQ items (runny nose, sneezing, blocked nose, itchy nose, itchy eyes, watery eyes) ([4]; Group H (score 1 or higher at week 0) vs Group L (score 0), no significant difference, P=0.084-0.59, FIGS. 9 to 14): all the mean values for the items of Group H were lower than those of Group L
- sneezing attack score in the severity classification of allergic rhinitis symptoms, change from the start of testing (week 0) ([5]; DGLA group (n=18) vs placebo group (n=15), DGLA-containing oil 1,000 mg/day (DGLA 314 mg/day) oral, 15 weeks, p<0.01, FIG. 1): significantly reduced
- nasal congestion score in the severity classification of allergic rhinitis symptoms, change from the start of testing (week 0) ([5]; DGLA group (n=18) vs placebo group (n=15), DGLA-containing oil 1,000 mg/day (DGLA 314 mg/day) oral, 15 weeks, p<0.05, FIG. 2): significantly reduced
- stratification analysis of the DGLA group, severity classification items (sneezing attack, nasal discharge, nasal congestion, itchy eyes, tearing) ([5]; Group H (score 1 or higher at week 0) vs Group L (score 0), no significant difference, P=0.249-0.712, FIGS. 4 to 8): all the mean values for the items of Group H were lower than those of Group L
